#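 A five-concentration, 48-hour dose response in 96-well plates underlies each endpoint, interpolated linearly between surrounding concentrations. The concentration for 50% growth inhibition is given as GI50. The concentration for full growth arrest is given as TGI.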
# Columns and labels:
# Assay in all cases: NCI tumour cell line growth inhibition, 48 h
# [1] = tested on: CAKI-1 renal
# [2] = tested on: COLO 205 colon
# [3] = tested on: SNB-78 CNS
# [4] = tested on: U251 CNS
# [5] = tested on: SNB-75 CNS
# [6] = tested on: SK-MEL-5 melanoma
# [7] = tested on: RXF 393 renal
# [8] = tested on: HT29 colon
# [9] = tested on: UACC-62 melanoma
# [10] = tested on: HCT-116 colon
# [11] = tested on: IGROV1 ovarian
# [12] = tested on: OVCAR-5 ovarian
# [13] = tested on: KM20L2 colon
# [14] = tested on: XF 498 CNS
# [15] = tested on: CCRF-CEM leukemia
# [16] = tested on: HOP-62 NSCLC
# [17] = tested on: M14 melanoma
# [18] = tested on: NCI-H460 lung
# [19] = tested on: SF-295 CNS
# [20] = tested on: OVCAR-4 ovarian
# [21] = tested on: KM12 colon
# [22] = tested on: DMS 114 small cell lung
# [23] = tested on: HOP-92 NSCLC
# [24] = tested on: SK-MEL-28 melanoma
# [25] = tested on: SF-268 CNS
# [26] = tested on: RPMI-8226 leukemia
# [27] = tested on: SN12C renal
# [28] = tested on: UACC-257 melanoma
# [29] = tested on: DMS 273 small cell lung
# [30] = tested on: EKVX NSCLC
# [31] = tested on: NCI-H23 lung
# [32] = tested on: SNB-19 CNS
# [33] = tested on: NCI-H226 lung
# [34] = tested on: LOX IMVI melanoma
# [35] = tested on: NCI-H522 lung
# [36] = tested on: A498 renal
# [37] = tested on: MALME-3M melanoma
# [38] = tested on: SK-OV-3 ovarian
# [39] = tested on: SW-620 colon
# [40] = tested on: UO-31 renal
# [41] = tested on: TK-10 renal
# [42] = tested on: HCT-15 colon
# [43] = tested on: LXFL 529 NSCLC
# [44] = tested on: OVCAR-8 ovarian
# [45] = tested on: ACHN renal
# [46] = tested on: A549 NSCLC
# [47] = tested on: SF-539 CNS
# [48] = tested on: HOP-18 NSCLC
# [49] = tested on: HL-60(TB) leukemia
# [50] = tested on: SK-MEL-2 melanoma
# [51] = tested on: 786-0 renal
# [52] = tested on: OVCAR-3 ovarian
# [53] = tested on: MOLT-4 leukemia
# [54] = tested on: K-562 leukemia
# [55] = tested on: RXF-631 renal
# [56] = tested on: M19-MEL melanoma
# [57] = tested on: DLD-1 colon
# [58] = tested on: HCC-2998 colon
# [59] = tested on: SR leukemia
structure (smiles),measurement,setting,value
C[C@]12Cc3cn[nH]c3C(=O)C1CC[C@@H]1C2CC[C@@]2(C)C1CC[C@@H]2O (stereo not given in full),TGI,[1],> 100 µM
same,TGI,[2],> 100 µM
same,TGI,[3],> 100 µM
same,TGI,[4],> 100 µM
same,TGI,[5],> 100 µM
same,TGI,[6],> 100 µM
same,TGI,[7],> 100 µM
same,TGI,[8],> 100 µM
same,TGI,[9],> 100 µM
same,TGI,[10],> 100 µM
same,TGI,[11],> 100 µM
same,TGI,[12],> 100 µM
same,TGI,[13],> 100 µM
same,TGI,[14],> 100 µM
same,TGI,[15],> 100 µM
same,TGI,[16],> 100 µM
same,TGI,[17],> 100 µM
same,TGI,[18],> 100 µM
same,TGI,[19],> 100 µM
same,TGI,[20],> 100 µM
same,TGI,[21],> 100 µM
same,TGI,[22],> 100 µM
same,TGI,[23],> 100 µM
same,TGI,[24],> 100 µM
same,TGI,[25],> 100 µM
same,TGI,[26],> 100 µM
same,TGI,[27],> 100 µM
same,TGI,[28],> 100 µM
same,TGI,[29],> 100 µM
same,TGI,[30],> 100 µM
same,TGI,[31],> 100 µM
same,TGI,[32],> 100 µM
same,TGI,[33],> 100 µM
same,TGI,[34],> 100 µM
same,TGI,[35],> 100 µM
same,TGI,[36],> 100 µM
same,TGI,[37],> 100 µM
same,TGI,[38],> 100 µM
same,TGI,[39],> 100 µM
same,TGI,[40],> 100 µM
same,TGI,[41],> 100 µM
same,TGI,[42],> 100 µM
same,TGI,[43],> 100 µM
same,TGI,[44],> 100 µM
same,TGI,[45],> 100 µM
same,TGI,[46],> 100 µM
same,TGI,[47],> 100 µM
same,TGI,[48],> 100 µM
same,TGI,[49],> 100 µM
same,TGI,[50],> 100 µM
same,TGI,[51],> 100 µM
same,TGI,[52],> 100 µM
same,TGI,[53],> 100 µM
same,TGI,[54],> 100 µM
N#CC(C(=O)C(=O)Nc1c(Cl)cccc1Cl)c1ccccc1 (stereo not given),GI50,[1],> 100 µM
same,TGI,[1],> 100 µM
same,GI50,[2],> 100 µM
same,TGI,[2],> 100 µM
same,GI50,[3],> 100 µM
same,TGI,[3],> 100 µM
same,GI50,[4],> 100 µM
same,TGI,[4],> 100 µM
same,GI50,[5],> 100 µM
same,TGI,[5],> 100 µM
same,GI50,[6],> 100 µM
same,TGI,[6],> 100 µM
same,GI50,[8],> 100 µM
same,TGI,[8],> 100 µM
same,GI50,[9],> 100 µM
same,TGI,[9],> 100 µM
same,GI50,[11],> 100 µM
same,TGI,[11],> 100 µM
same,GI50,[12],> 100 µM
same,GI50,[55],> 100 µM
same,TGI,[55],> 100 µM
same,TGI,[14],> 100 µM
same,GI50,[15],> 100 µM
same,TGI,[15],> 100 µM
same,GI50,[16],> 100 µM
same,TGI,[16],> 100 µM
same,GI50,[17],> 100 µM
same,TGI,[17],> 100 µM
same,GI50,[18],> 100 µM
same,TGI,[18],> 100 µM
same,GI50,[19],> 100 µM
same,GI50,[20],> 100 µM
same,TGI,[20],> 100 µM
same,GI50,[56],> 100 µM
same,TGI,[56],> 100 µM
same,GI50,[21],> 100 µM
same,TGI,[21],> 100 µM
same,GI50,[22],> 100 µM
same,TGI,[22],> 100 µM
same,GI50,[23],> 100 µM
same,TGI,[23],> 100 µM
same,GI50,[57],> 100 µM
same,TGI,[57],> 100 µM
same,GI50,[24],> 100 µM
same,TGI,[24],> 100 µM
same,GI50,[25],> 100 µM
same,TGI,[25],> 100 µM
same,GI50,[26],> 100 µM
same,TGI,[26],> 100 µM
same,GI50,[27],> 100 µM
same,TGI,[27],> 100 µM
same,GI50,[58],> 100 µM
same,TGI,[58],> 100 µM
same,GI50,[29],> 100 µM
same,TGI,[29],> 100 µM
same,GI50,[30],> 100 µM
same,TGI,[30],> 100 µM
same,GI50,[31],> 100 µM
same,TGI,[31],> 100 µM
same,GI50,[32],> 100 µM
same,TGI,[32],> 100 µM
same,GI50,[33],> 100 µM
same,TGI,[33],> 100 µM
same,GI50,[34],> 100 µM
same,GI50,[36],> 100 µM
same,TGI,[36],> 100 µM
same,GI50,[37],> 100 µM
same,TGI,[37],> 100 µM
same,GI50,[38],> 100 µM
same,TGI,[38],> 100 µM
same,GI50,[39],> 100 µM
same,TGI,[39],> 100 µM
same,GI50,[40],> 100 µM
same,TGI,[40],> 100 µM
same,GI50,[41],> 100 µM
same,TGI,[41],> 100 µM
same,GI50,[42],> 100 µM
same,TGI,[42],> 100 µM
same,GI50,[43],> 100 µM
same,TGI,[43],> 100 µM
same,TGI,[44],> 100 µM
same,GI50,[45],> 100 µM
same,TGI,[45],> 100 µM
same,GI50,[46],> 100 µM
same,TGI,[46],> 100 µM
same,GI50,[47],> 100 µM
same,TGI,[47],> 100 µM
same,GI50,[48],> 100 µM
same,TGI,[48],> 100 µM
same,GI50,[49],> 100 µM
same,TGI,[49],> 100 µM
same,GI50,[50],> 100 µM
same,TGI,[50],> 100 µM
same,GI50,[51],> 100 µM
same,TGI,[51],> 100 µM
same,GI50,[52],> 100 µM
same,TGI,[52],> 100 µM
same,GI50,[53],> 100 µM
same,TGI,[53],> 100 µM
same,GI50,[54],> 100 µM
same,TGI,[54],> 100 µM
O=C1NC2=C(CCCCC/C2=N\O)C12CCCCCC2,TGI,[1],> 100 µM
same,TGI,[2],> 100 µM
same,TGI,[3],> 100 µM
same,TGI,[4],> 100 µM
same,TGI,[5],> 100 µM
same,TGI,[6],> 100 µM
same,TGI,[7],> 100 µM
same,TGI,[8],> 100 µM
same,TGI,[9],> 100 µM
same,TGI,[10],> 100 µM
same,TGI,[11],> 100 µM
same,TGI,[12],> 100 µM
same,TGI,[14],> 100 µM
same,TGI,[15],> 100 µM
same,TGI,[16],> 100 µM
same,TGI,[17],> 100 µM
same,TGI,[18],> 100 µM
same,TGI,[19],> 100 µM
same,TGI,[20],> 100 µM
same,TGI,[56],> 100 µM
same,TGI,[21],> 100 µM
same,TGI,[22],> 100 µM
same,TGI,[23],> 100 µM
same,TGI,[57],> 100 µM
same,TGI,[24],> 100 µM
same,TGI,[25],> 100 µM
same,TGI,[26],> 100 µM
same,TGI,[27],> 100 µM
same,TGI,[28],> 100 µM
same,TGI,[29],> 100 µM
same,TGI,[30],> 100 µM
same,TGI,[31],> 100 µM
same,TGI,[32],> 100 µM
same,TGI,[59],> 100 µM
same,TGI,[34],> 100 µM
same,TGI,[35],> 100 µM
same,TGI,[36],> 100 µM
same,TGI,[37],> 100 µM
same,TGI,[38],> 100 µM
same,TGI,[39],> 100 µM
same,TGI,[40],> 100 µM
same,TGI,[41],> 100 µM
same,TGI,[42],> 100 µM
same,TGI,[43],> 100 µM
same,TGI,[44],> 100 µM
same,TGI,[45],> 100 µM
same,TGI,[46],> 100 µM
same,TGI,[47],> 100 µM
same,TGI,[48],> 100 µM
same,TGI,[49],> 100 µM
same,TGI,[50],> 100 µM
same,TGI,[51],> 100 µM
same,TGI,[52],> 100 µM
same,TGI,[53],> 100 µM
same,TGI,[54],> 100 µM

# Source: PubChem BioAssay (NCI)
